Here are results for one compound from paper PMC8481687, “Anti-diabetic Potential of a Stigmasterol From the Seaweed Gelidium spinosum and Its Application in the Formulation of Nanoemulsion Conjugate for the Development of Functional Biscuits” (Frontiers in Nutrition, 2021).

The assay addresses α-amylase. Put plainly: starch hydrolysis, dinitrosalicylic acid assay at […] nm. Type of assay: biochemical.

≈ marks a conversion by molar mass, not a printed value.

`CC[C@H](/C=C/[C@@H](C)[C@H]1CC[C@H]2[C@@H]3CC=C4C[C@@H](O)CC[C@]4(C)[C@H]3CC[C@]12C)C(C)C` [stigmasterol] yielded a 50% inhibitory concentration (IC50) of 89.27 µg/mL (≈ 216 µM).
